# Laboratory results as given in patent US20220233652A1, “Pharmaceutical Compositions Comprising Integration-Promoting Peptides” (priority 2018, published 2022).
# Experiments:
# [1] = test system: 1975 human lung cancer cells; assay: Lung cancer tumor mice model; assay type: in vivo, athymic nude mice; conditions: for Inhibition of growth of lung cancer tumors relative to control: day 11
# Description: Two models of cancer were generated: lung cancer and pancreatic cancer. About 5×10^6 of 1975 human lung cancer cells per 0.1 ml PBS per mouse were injected to male 7 weeks old athymic nude mice (n=30). The cells were injected, subcutaneously at one site on the back of the mice. About 5×10^6 PANC-1 human pancreatic cancer cells per 0.1 ml PBS per mouse were injected to male 7 weeks old athymic nude mice (n=22). The cells were injected, subcutaneously at one site on the back of the mice. When tumors were palpable (˜0.3-0.5 cm^3), the mice were randomly divided into three groups (Table 27) and the viruses and/or peptides were injected, twice a week for two weeks.
# (§1) The first day of the study was defined as ‘Day 1’. The animals were administrated IP with either Vehicle (PBS or Formulation), lentiviral particles and SC with test items according to Table 27 on days 1, 4, 8 and 11. Body weight and tumor volume were checked on days 3, 7, 11, 14 and 17 (the latter was measured with a caliper). At the end of the experiment, on day 17, the mice were anesthetized and then sacrificed, and the tumors were removed, as well as lung, spleen, kidney and liver.
# [2] = Mortality, body weight and safety in tumor mice models; assay type: in vivo, athymic nude mice; conditions: lung and pancreatic cancer models
# Description: • 1. Mortality—every day • 2. Tumor measurements—twice a week • 3. Tumor weight post mortem • 4. Tissue preservation—kept in formalin or were snap freezed and kept at −80° C.
# as §1
# [3] = Phase I/IIa clinical trial: safety and tolerability; assay type: in vivo, human; conditions: HIV patients, 5 weeks SC administration
# Source text: Patients are monitored for adverse events (AE) of the INS peptide such as rash, acute allergic reaction, bronchospasm, respiratory distress, and acute vascular leak syndrome. If a severe administration related reaction occurs, the drug administration is stopped. Blood chemistry, hematology, coagulation, and urinalysis are repeated on Days 1, 4, 8, 11, 15, 18, 22, 25 at the clinic visits.
# The primary safety endpoint is the frequency, severity, and duration of side effects. Number of participants with treatment-related adverse events as assessed by CTCAE v4.03, are evaluated though study completion. Main adverse events evaluation is based on DADS Toxicity criteria (Division of AIDS DADS Table for Grading the Severity of Adult and Paediatric Adverse Events, Corrected Version 2.1): • Viral load • Lymphopenia/Neutropenia • Immuno-reaction over reaction/cytokine storm • Infection surrounding the administration site • Liver function (lab tests) • Kidney function (lab tests)
# Incidence of withdrawal (drop-out rate) due to side effects is evaluated throughout the study.
sequence,measurement,setting,value
WTAVQMAVFIHNFKRK [INS],Inhibition of growth of lung cancer tumors relative to control,"[1]; lentiviral particles IP + INS peptide 1.25 mg/kg SC on days 1, 4, 8, 11",50%
same,Inhibition of growth of lung cancer tumors relative to control,"[1]; lentiviral particles IP + INS peptide 2.5 mg/kg SC on days 1, 4, 8, 11",50%
same,Comparison of doses at the end of the experiment,"[1]; day 17, INS 1.25 mg/kg versus 2.5 mg/kg, with lentiviral particles",better results than with INS 2.5 mg/kg
same,Mortality,[2]; 17 days,No animal was found dead or in morbid state
same,Body weight,[2]; mice gained weight as expected,no differences between groups
same,Side effects and harm to immune system (monitored by CD4 cells),[3],no side effects and no harm to immune system
